The values that follow come from US20240109900A1, “AZABICYCLIC SHP2 INHIBITORS” (IRBM S.P.A., priority 2021, published 2024).

Where two headings read alike, the source gives them in different places.

Broadly, the IC50 is the concentration that gives 50% inhibition.

Test [1] has as its target SHP-2 enzyme (Met1-Leu525) (Homo sapiens (Human), UniProt Q06124). As to the kind of experiment: SHP2 inhibition enzymatic assay. The class given is biochemical. The note with it: 0.5 nM SHP-2 activated by 500 nM IRS1 peptide, 75 μM DiFMUP substrate; read-out: SHP2wt-IC50. Summed up: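 SHP-2 (Met1-Leu525), 0.5 nM, activated with 500 nM IRS1 bis-phosphopeptide, preincubated 30 min with compounds in HEPES pH 7.2 buffer with 5 mM DTT. 75 μM DiFMUP added for 30 min at room temperature, stopped with bpV; fluorescence read. IC50 from four-parameter logistic fit of % inhibition.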

Test [2] relates to ERK phosphorylation in KYSE-520 cells. The test can be described thus: Phospho-ERK cellular assay. In kind it is cell-based. Conditions: KYSE-520 cells, 2 h at 37° C., phospho-ERK1/2 (Thr202/Tyr204) TR-FRET, read-out: PERK IC50. Summed up:
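TR-FRET read-out of ERK1/2 Thr202/Tyr204 phosphorylation was taken after overnight antibody incubation at room temperature. Before that, KYSE-520 cells were treated 2 h at 37 °C with compound dilutions and lysed 30 min. Percent inhibition relative to vehicle and cell-free wells was fitted four-parametrically to give IC50.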

Sequence of SHP-2 enzyme (Met1-Leu525) (Q06124 1-525): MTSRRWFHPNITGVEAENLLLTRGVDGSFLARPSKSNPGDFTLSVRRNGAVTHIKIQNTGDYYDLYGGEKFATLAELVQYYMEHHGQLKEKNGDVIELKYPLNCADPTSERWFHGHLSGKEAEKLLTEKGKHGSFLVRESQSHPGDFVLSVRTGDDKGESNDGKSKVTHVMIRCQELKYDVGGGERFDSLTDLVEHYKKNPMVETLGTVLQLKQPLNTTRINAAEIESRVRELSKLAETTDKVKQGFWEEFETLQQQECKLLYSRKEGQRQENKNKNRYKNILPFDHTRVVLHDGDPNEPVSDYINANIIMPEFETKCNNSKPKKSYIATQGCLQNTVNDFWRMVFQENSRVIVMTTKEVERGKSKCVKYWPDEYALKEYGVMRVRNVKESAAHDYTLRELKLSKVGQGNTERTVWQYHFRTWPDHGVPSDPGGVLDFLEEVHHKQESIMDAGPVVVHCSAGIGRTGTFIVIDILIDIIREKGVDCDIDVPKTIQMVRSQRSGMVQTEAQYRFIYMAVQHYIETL

Take `Cn1cc2c(Cl)c(-c3n[nH]c4nc(N5CCC6C(C5)C6(CN)c5ncccc5F)cnc34)ccc2n1` (centres unmarked) [Example 49, (3-(3-(4-chloro-2-methyl-2H-indazol-5-yl)-1H-pyrazolo[3,4-b]pyrazin-6-yl)-7-(3-fluoropyridin-2-yl)-3-azabicyclo[4.1.0]heptan-7-yl)methanamine]: the IC50 in test [1] is under 500 nM; in test [2] (Homo sapiens, KYSE-520, 2 h) it was under 1000 nM.
For `Cc1c(-c2n[nH]c3nc(N4CC[C@@H]5[C@H](C4)[C@@]5(CN)c4ccccc4F)cnc23)ccc2c1n(C)c(=O)n2C` [Example 261, 5-(6-((1S,6R,7R)-7-(aminomethyl)-7-(2-fluorophenyl)-3-azabicyclo[4.1.0]heptan-3-yl)-1H-pyrazolo[3,4-b]pyrazin-3-yl)-1,3,4-trimethyl-1,3-dihydro-2H-benzo[d]imidazol-2-one] the same measures were under 500 nM and under 1000 nM.
In the same order, the values of `NC[C@]1(c2ccccc2F)[C@@H]2CCN(c3cnc4c(-c5nccc6ncccc56)n[nH]c4n3)C[C@@H]21` [Example 153, ((1S,6R,7R)-3-(3-(1,6-naphthyridin-5-yl)-1H-pyrazolo[3,4-b]pyrazin-6-yl)-7-(2-fluorophenyl)-3-azabicyclo[4.1.0]heptan-7-yl)methanamine] are under 500 nM and under 1000 nM.
In the same order, the values of `Cc1csc([C@@]2(CN)[C@@H]3CN(c4cnc5nc(Sc6ccnc(-n7cccn7)c6Cl)ccc5n4)C[C@@H]32)n1` [Example 515, ((1R,5S,6r)-3-(6-((3-chloro-2-(1H-pyrazol-1-yl)pyridin-4-yl)thio)pyrido[2,3-b]pyrazin-2-yl)-6-(4-methylthiazol-2-yl)-3-azabicyclo[3.1.0]hexan-6-yl)methanamine] are under 500 nM and under 1000 nM.
In the case of `NC[C@]1(c2ccccc2)[C@@H]2CN(c3cnc(Sc4cccnc4C(F)(F)F)c(N)n3)C[C@@H]21` [Example 104, 6-((1R,5S,6s)-6-(aminomethyl)-6-phenyl-3-azabicyclo[3.1.0]hexan-3-yl)-3-((2-(trifluoromethyl)pyridin-3-yl)thio)pyrazin-2-amine], the IC50 in test [1] is under 500 nM; in test [2] (Homo sapiens), over 5000 nM.
Regarding `NC[C@]1(c2ccccc2F)[C@@H]2CCN(c3cnc4c(-c5ccnc6cnccc56)n[nH]c4n3)C[C@@H]21` [Example 155, ((1S,6R,7R)-3-(3-(1,7-naphthyridin-4-yl)-1H-pyrazolo[3,4-b]pyrazin-6-yl)-7-(2-fluorophenyl)-3-azabicyclo[4.1.0]heptan-7-yl)methanamine], the IC50 was under 500 nM in test [1] and under 1000 nM in test [2] (Homo sapiens, KYSE-520, 2 h).
As for `NC[C@]1(c2ccccc2F)[C@@H]2CCN(c3cnc(Sc4ccc5nccnc5c4Cl)c(N)n3)C[C@@H]21` [Example 523, 6-((1S,6R,7R)-7-(aminomethyl)-7-(2-fluorophenyl)-3-azabicyclo[4.1.0]heptan-3-yl)-3-((5-chloroquinoxalin-6-yl)thio)pyrazin-2-amine], the IC50 in test [1] is under 500 nM; in test [2] (Homo sapiens, KYSE-520, 2 h) it was under 1000 nM.
As for `Cc1cc([C@@]2(CN)[C@@H]3CCN(c4cnc5c(-c6ccc7nn(C)c(Cl)c7c6Cl)n[nH]c5n4)C[C@@H]32)no1` [Example 44, ((1S,6R,7S)-3-(3-(3,4-dichloro-2-methyl-2H-indazol-5-yl)-1H-pyrazolo[3,4-b]pyrazin-6-yl)-7-(5-methylisoxazol-3-yl)-3-azabicyclo[4.1.0]heptan-7-yl)methanamine], the IC50 is under 500 nM in test [1] and under 1000 nM in test [2] (Homo sapiens, KYSE-520, 2 h).
For `COC(C)c1ccc(-c2n[nH]c3nc(N4CC[C@@H]5[C@H](C4)[C@@]5(CN)c4ccccc4F)cnc23)c2cccnc12` (stereo partly drawn) [Example 165, ((1S,6R,7R)-7-(2-fluorophenyl)-3-(3-(8-(1-methoxyethyl)quinolin-5-yl)-1H-pyrazolo[3,4-b]pyrazin-6-yl)-3-azabicyclo[4.1.0]heptan-7-yl)methanamine] the same measures were under 500 nM and under 1000 nM.
For `NC[C@]1(c2ccccc2F)[C@@H]2CCN(c3cnc4c(-c5cc[nH]c(=O)c5Cl)n[nH]c4n3)C[C@@H]21` [Example 268, 4-(6-((1S,6R,7R)-7-(aminomethyl)-7-(2-fluorophenyl)-3-azabicyclo[4.1.0]heptan-3-yl)-1H-pyrazolo[3,4-b]pyrazin-3-yl)-3-chloropyridin-2(1H)-one] the same measures were under 500 nM and under 1000 nM.
For `NC[C@]1(c2ccccc2F)[C@@H]2CCN(c3cnc4c(-c5cnn(-c6ccccc6)c5)n[nH]c4n3)C[C@@H]21` [Example 390, ((1S,6R,7R)-7-(2-fluorophenyl)-3-(3-(1-phenyl-1H-pyrazol-4-yl)-1H-pyrazolo[3,4-b]pyrazin-6-yl)-3-azabicyclo[4.1.0]heptan-7-yl)methanamine], the IC50 in test [1] is under 500 nM; in test [2] (Homo sapiens, KYSE-520, 2 h) it was over 5000 nM.
In the same order, the values of `Cn1cc2c(Cl)c(-c3n[nH]c4nc(N5CCC6C(C5)C6(CN)c5ccc(F)cn5)cnc34)ccc2n1` (centres unmarked) [Example 50, (3-(3-(4-chloro-2-methyl-2H-indazol-5-yl)-1H-pyrazolo[3,4-b]pyrazin-6-yl)-7-(5-fluoropyridin-2-yl)-3-azabicyclo[4.1.0]heptan-7-yl)methanamine] are under 500 nM and under 1000 nM.
Turning to `NC[C@]1(c2ccccc2F)[C@@H]2CCN(c3cnc4c(-c5ccc6c(c5)CCC(=O)N6)n[nH]c4n3)C[C@@H]21` [Example 238, 6-(6-((1S,6R,7R)-7-(aminomethyl)-7-(2-fluorophenyl)-3-azabicyclo[4.1.0]heptan-3-yl)-1H-pyrazolo[3,4-b]pyrazin-3-yl)-3,4-dihydroquinolin-2(1H)-one], the IC50 in test [1] was under 500 nM; in test [2] (Homo sapiens, KYSE-520, 2 h), under 1000 nM.
In the case of `NC[C@]1(c2ccccc2F)[C@@H]2CCN(c3cnc4c(-c5ccc(C(N)=O)cc5Cl)n[nH]c4n3)C[C@@H]21` [Example 276, 4-(6-((1S,6R,7R)-7-(aminomethyl)-7-(2-fluorophenyl)-3-azabicyclo[4.1.0]heptan-3-yl)-1H-pyrazolo[3,4-b]pyrazin-3-yl)-3-chlorobenzamide], the IC50 in test [1] is under 500 nM; in test [2] (Homo sapiens, KYSE-520, 2 h), under 1000 nM.
For `NC[C@]1(c2ncccc2F)[C@@H]2CCN(c3cnc4c(-c5ccc(OC(F)(F)F)c6ncccc56)n[nH]c4n3)C[C@@H]21` [Example 144, ((1S,6R,7S)-7-(3-fluoropyridin-2-yl)-3-(3-(8-(trifluoromethoxy)quinolin-5-yl)-1H-pyrazolo[3,4-b]pyrazin-6-yl)-3-azabicyclo[4.1.0]heptan-7-yl)methanamine] the same measures were under 500 nM and under 1000 nM.
On to `Cc1nccc(-c2n[nH]c3nc(N4CC[C@@H]5[C@H](C4)[C@@]5(CN)c4ccccc4F)cnc23)c1Cl` [Example 189, ((1S,6R,7R)-3-(3-(3-chloro-2-methylpyridin-4-yl)-1H-pyrazolo[3,4-b]pyrazin-6-yl)-7-(2-fluorophenyl)-3-azabicyclo[4.1.0]heptan-7-yl)methanamine], for which the IC50 in test [1] is under 500 nM; in test [2] (Homo sapiens, KYSE-520, 2 h), under 1000 nM.
As to `Cn1cc2c(Cl)c(-c3n[nH]c4nc(N5CC[C@@H]6[C@H](CC5)C6(CN)c5ccccc5F)cnc34)ccc2n1` (stereo partly drawn) [Example 404, ((1R,7S)-4-(3-(4-chloro-2-methyl-2H-indazol-5-yl)-1H-pyrazolo[3,4-b]pyrazin-6-yl)-8-(2-fluorophenyl)-4-azabicyclo[5.1.0]octan-8-yl)methanamine], the IC50 in test [1] is under 500 nM; in test [2] (Homo sapiens, KYSE-520, 2 h), under 1000 nM.
In the same order, the values of `Cc1c(-c2n[nH]c3nc(N4CC[C@@H]5[C@H](C4)[C@@]5(CN)c4ccccc4F)cnc23)cnn1C` [Example 348, ((1S,6R,7R)-3-(3-(1,5-dimethyl-1H-pyrazol-4-yl)-1H-pyrazolo[3,4-b]pyrazin-6-yl)-7-(2-fluorophenyl)-3-azabicyclo[4.1.0]heptan-7-yl)methanamine] are under 500 nM and under 1000 nM.
As for `NC[C@]1(c2ccccc2F)[C@@H]2CCN(c3cnc4c(-c5ccc6ccc(=O)[nH]c6c5Cl)n[nH]c4n3)C[C@@H]21` [Example 237, 7-(6-((1S,6R,7R)-7-(aminomethyl)-7-(2-fluorophenyl)-3-azabicyclo[4.1.0]heptan-3-yl)-1H-pyrazolo[3,4-b]pyrazin-3-yl)-8-chloroquinolin-2(1H)-one], the IC50 is under 500 nM in test [1] and under 1000 nM in test [2] (Homo sapiens, KYSE-520, 2 h).
For `NC[C@]1(c2ccccc2F)[C@@H]2CCN(c3cnc4c(-c5ccc(-c6cn[nH]c6)cc5Cl)n[nH]c4n3)C[C@@H]21` [Example 256, ((1S,6R,7R)-3-(3-(2-chloro-4-(1H-pyrazol-4-yl)phenyl)-1H-pyrazolo[3,4-b]pyrazin-6-yl)-7-(2-fluorophenyl)-3-azabicyclo[4.1.0]heptan-7-yl)methanamine] the same measures were under 500 nM and under 1000 nM.
In the same order, the values of `Cc1cc([C@@]2(CN)[C@@H]3CCN(c4cnc5c(-c6ccnc7cc(F)ccc67)n[nH]c5n4)C[C@@H]32)no1` [Example 45, ((1S,6R,7S)-3-(3-(7-fluoroquinolin-4-yl)-1H-pyrazolo[3,4-b]pyrazin-6-yl)-7-(5-methylisoxazol-3-yl)-3-azabicyclo[4.1.0]heptan-7-yl)methanamine] are under 500 nM and under 1000 nM.
For `Cc1csc([C@@]2(CN)[C@@H]3CN(c4cnc5c(-c6ccc7cn(C(F)F)nc7c6Cl)n[nH]c5n4)C[C@@H]32)n1` [Example 464], the IC50 in test [1] is under 500 nM; in test [2] it was under 1000 nM.
